Data taken from ChEMBL document CHEMBL1146306, “Design and synthesis of conformationally constrained tri-substituted ureas as potent antagonists of the human glucagon receptor” (Bioorg Med Chem Lett, 2007).
pIC50: −log10 of the molar value.

Experiments:
[1] = Volume of distribution at steady state in mouse at 1 mg/kg, iv and 2 mg/kg, po; format: ADME, organism-based; conditions: in vivo, read-out: Vdss
[2] = target: T1, Gastric inhibitory polypeptide receptor (Homo sapiens, UniProt P48546); assay: Antagonist activity at human GIP receptor transfected in CHO cells assessed as inhibition of […] cAMP accumulation; format: functional, cell-based
T1 sequence (P48546 whole entry): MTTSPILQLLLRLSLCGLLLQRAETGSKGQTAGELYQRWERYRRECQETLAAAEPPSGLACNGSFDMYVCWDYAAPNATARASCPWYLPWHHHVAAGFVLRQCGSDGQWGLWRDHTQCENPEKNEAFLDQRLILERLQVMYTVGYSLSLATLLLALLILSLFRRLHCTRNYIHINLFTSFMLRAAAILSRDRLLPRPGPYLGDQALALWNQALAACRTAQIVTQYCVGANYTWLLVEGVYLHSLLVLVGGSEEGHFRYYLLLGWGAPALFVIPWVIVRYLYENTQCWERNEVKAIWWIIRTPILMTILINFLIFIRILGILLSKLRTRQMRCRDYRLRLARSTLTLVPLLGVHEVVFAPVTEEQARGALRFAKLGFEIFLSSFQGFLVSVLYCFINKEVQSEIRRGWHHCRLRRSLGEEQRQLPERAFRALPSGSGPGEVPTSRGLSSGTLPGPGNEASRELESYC

[3] = Bioavailability in mouse at 1 mg/kg, iv and 2 mg/kg, po; format: ADME, organism-based; conditions: in vivo
[4] = Half life in mouse at 1 mg/kg, iv and 2 mg/kg, po; format: ADME, organism-based; conditions: in vivo
[5] = Plasma clearance in mouse at 1 mg/kg, iv and 2 mg/kg, po; format: ADME, organism-based
[6] = Cmax in mouse at 1 mg/kg, iv and 2 mg/kg, po; format: ADME, organism-based; conditions: in vivo
Glucagon receptor [7] = target: T2, Glucagon receptor (Homo sapiens, UniProt P47871); assay: Antagonist activity at human glucagon receptor transfected in CHO cells assessed as inhibition of glucagon-induced cAMP accumulation; format: functional, cell-based; conditions: for pIC50: read-out: IC50
Glucagon receptor [8] = target: T2, Glucagon receptor; assay: Displacement of [125]glucagon from human glucagon receptor expressed in CHO cells; format: cell-based
CHO = assay: Selectivity for human glucagon receptor over human GIP receptor expressed in CHO cells by glucagon-stimulated cAMP accumulation assay; format: cell-based
Mus musculus [9] = assay: Inhibition of glucagon-induced hyperglycemic response in transgenic mouse expressing human glucagon receptor at 3 mg/kg, po after 24 mins relative to control; format: functional; conditions: 0.4 h
Mus musculus [10] = assay: Inhibition of glucagon-induced hyperglycemic response in transgenic mouse expressing human glucagon receptor at 10 mg/kg, po after 24 mins relative to control; format: functional; conditions: 0.4 h
Mus musculus [11] = assay: Decrease in non-fasting blood glucose level in transgenic diabetic mouse expressing human glucagon receptor at 10 mg/kg, po after 10 days relative to lean control; format: functional; set-up: scale not given: the % may be the effect or the level left
Mus musculus [12] = assay: Decrease in non-fasting blood glucose level in transgenic diabetic mouse expressing human glucagon receptor at 3 mg/kg, po after 10 days relative to lean control; format: functional; set-up: scale not given: the % may be the effect or the level left
Mus musculus [13] = assay: Decrease in non-fasting blood glucose level in transgenic diabetic mouse expressing human glucagon receptor at 10 mg/kg, po after 3 days relative to lean control; format: functional; set-up: scale not given: the % may be the effect or the level left
Mus musculus [14] = assay: Decrease in non-fasting blood glucose level in transgenic diabetic mouse expressing human glucagon receptor at 3 mg/kg, po after 3 days relative to lean control; format: functional; set-up: scale not given: the % may be the effect or the level left
Mus musculus [15] = assay: Inhibition of glucagon-induced hyperglycemic response in transgenic mouse expressing human glucagon receptor at 30 mg/kg, po after 24 mins relative to control; format: functional; conditions: 0.4 h

T2 sequence (P47871 whole entry): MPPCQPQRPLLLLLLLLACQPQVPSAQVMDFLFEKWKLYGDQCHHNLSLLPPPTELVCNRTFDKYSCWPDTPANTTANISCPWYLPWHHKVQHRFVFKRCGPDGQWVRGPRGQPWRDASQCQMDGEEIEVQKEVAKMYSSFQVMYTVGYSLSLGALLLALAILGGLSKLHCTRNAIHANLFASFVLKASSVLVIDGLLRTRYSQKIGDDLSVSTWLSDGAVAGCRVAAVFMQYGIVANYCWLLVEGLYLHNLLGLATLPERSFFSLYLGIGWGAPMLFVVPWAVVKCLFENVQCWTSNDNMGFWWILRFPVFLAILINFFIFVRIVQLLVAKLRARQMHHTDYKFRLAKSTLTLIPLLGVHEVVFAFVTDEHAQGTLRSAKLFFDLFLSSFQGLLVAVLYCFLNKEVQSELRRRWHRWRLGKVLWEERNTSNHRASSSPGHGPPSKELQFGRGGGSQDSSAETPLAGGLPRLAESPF

| Compound | pIC50 [2] | pIC50 (Glucagon receptor [7]) | pIC50 (Glucagon receptor [8]) | other results |
| --- | --- | --- | --- | --- |
| CC(C)(C)[C@H]1CC[C@H](N(C(=O)Nc2ccc(OC(F)(F)F)cc2)C2CCCc3cc(C(=O)Nc4nn[nH]n4)ccc32)CC1 (stereo not given in full) | 6.75 | – | – | Vd [1]: 1.4 L/kg; bioavailability [3]: 1.4%; half-life [4]: 480 min; clearance [5]: 6.4 mL/min/kg; Cmax [6]: 40 nM |
| CC(C)(C)[C@H]1CC[C@H](N(C(=O)c2ccc(OC(F)(F)F)cc2)C2CCc3cc(C(=O)NCCC(=O)O)ccc32)CC1 (stereo not given in full) | – | 5.56 | 6.89 | – |
| CC(C)(C)[C@H]1CC[C@H](N(C(=O)Nc2ccc(OC(F)(F)F)cc2)C2CCCc3cc(C(=O)NCCC(=O)O)ccc32)CC1 (stereo not given in full) | 6.77 | – | – | Vd [1]: 0.9 L/kg; bioavailability [3]: 10%; half-life [4]: 150 min; clearance [5]: 9 mL/min/kg; Cmax [6]: 90 nM |
| CC(C)(C)[C@H]1CC[C@H](N(C(=O)Nc2cc(C(F)(F)F)cc(C(F)(F)F)c2)C2CCc3cc(C(=O)NCCC(=O)O)ccc32)CC1 (stereo not given in full) | 5.69 | 7.34 | 7.55 | – |
| CC(C)(C)[C@H]1CC[C@H](N(C(=O)Nc2cc(Cl)cc(Cl)c2)C2CCc3cc(C(=O)NCCC(=O)O)ccc32)CC1 (stereo not given in full) | 5.89 | 7.96 | 8.00 | Fold change (CHO): > 100 |
| CC(C)(C)[C@H]1CC[C@H](N(C(=O)Cc2ccc(OC(F)(F)F)cc2)C2CCc3cc(C(=O)NCCC(=O)O)ccc32)CC1 (stereo not given in full) | 6.54 | 6.30 | 7.74 | – |
| CC(C)(C)[C@H]1CC[C@@H](N(C(=O)Nc2ccc(OC(F)(F)F)cc2)C2CCc3cc(C(=O)NCCC(=O)O)ccc32)CC1 (stereo not given in full) | – | – | 5.47 | – |
| CC(C)(C)[C@H]1CC[C@@H](N(C(=O)Nc2ccc(OC(F)(F)F)cc2)C2CCc3cc(C(=O)NCCC(=O)O)ccc32)CC1 (single isomer, unassigned) | 6.22 | 7.34 | 8.42 | – |
| O=C(Nc1nn[nH]n1)c1ccc2c(c1)CCC2N(C(=O)Nc1ccc(OC(F)(F)F)cc1)c1ccc(C2CCCCC2)cc1 (stereo not given) | – | 7.07 | 7.66 | – |
| O=C(Nc1nnn[nH]1)c1ccc2c(c1)CCC2N(C(=O)Nc1ccc(OC(F)(F)F)cc1)c1ccc(OC(F)(F)F)cc1 (stereo not given) | – | 5.46 | 7.21 | – |
| CC(C)(C)[C@H]1CC[C@H](N(C(=O)Nc2ccc(OC(F)(F)F)cc2)C2CCc3cc(C(=O)Nc4nn[nH]n4)ccc32)CC1 (stereo not given in full) | 6.53 | – | – | – |
| CC(C)(C)[C@H]1CC[C@H](N(C(=O)Nc2cc(C(F)(F)F)cc(C(F)(F)F)c2)C2CCc3cc(C(=O)Nc4nnn[nH]4)ccc32)CC1 (stereo not given in full) | 5.37 | 7.21 | 8.12 | – |
| CC(C)(C)[C@H]1CC[C@H](N(C(=O)Nc2ccc(OC(F)(F)F)cc2)C2CCc3cc(C(=O)NCCC(=O)O)ccc32)CC1 (stereo not given in full) | 6.88 | – | – | Vd [1]: 1.6 L/kg; inhibition in vivo at 3 mg/kg (Mus musculus [9]): 51%; inhibition in vivo at 10 mg/kg (Mus musculus [10]): 59%; Activity (Mus musculus [11]): 106%; Activity (Mus musculus [12]): 87%; bioavailability [3]: 17%; half-life [4]: 336 min; Activity (Mus musculus [13]): 99%; Activity (Mus musculus [14]): 72%; inhibition in vivo at 30 mg/kg (Mus musculus [15]): 122%; clearance [5]: 9 mL/min/kg; Cmax [6]: 130 nM |
| CC(C)(C)[C@H]1CC[C@H](N(C(=O)Nc2cc(Cl)cc(Cl)c2)C2CCc3cc(C(=O)Nc4nn[nH]n4)ccc32)CC1 (stereo not given in full) | 5.45 | 8.23 | 8.31 | Fold change (CHO): > 500 |
| CC(C)(C)[C@H]1CC[C@@H](N(C(=O)Nc2ccc(OC(F)(F)F)cc2)C2CCc3cc(C(=O)Nc4nn[nH]n4)ccc32)CC1 (stereo not given in full) | – | 6.10 | 6.67 | – |
| CC(C)(C)[C@H]1CC[C@H](N(C(=O)Cc2ccc(OC(F)(F)F)cc2)C2CCc3cc(C(=O)Nc4nnn[nH]4)ccc32)CC1 (stereo not given in full) | 6.93 | 7.17 | 8.32 | – |
| CC(C)(C)[C@H]1CC[C@H](N(C(=O)c2ccc(OC(F)(F)F)cc2)C2CCc3cc(C(=O)Nc4nnn[nH]4)ccc32)CC1 (stereo not given in full) | 6.21 | 5.83 | 7.31 | – |
| CC(C)(C)[C@H]1CC[C@H](N(C(=O)Nc2ccc(OC(F)(F)F)cc2)C2CCOc3cc(C(=O)NCCC(=O)O)ccc32)CC1 (stereo not given in full) | 6.66 | – | – | Vd [1]: 1.4 L/kg; bioavailability [3]: 15%; half-life [4]: 204 min; clearance [5]: 13 mL/min/kg; Cmax [6]: 60 nM |
| CC(C)(C)[C@H]1CC[C@@H](N(C(=O)Nc2ccc(OC(F)(F)F)cc2)C2CCc3cc(C(=O)Nc4nn[nH]n4)ccc32)CC1 (single isomer, unassigned) | 6.36 | 7.74 | 9.00 | – |
| O=C(O)CCNC(=O)c1ccc2c(c1)CCC2N(C(=O)Nc1ccc(OC(F)(F)F)cc1)c1ccc(OC(F)(F)F)cc1 (stereo not given) | – | – | 6.09 | IC50 (Glucagon receptor [7]; cho): Not Active |
| O=C(O)CCNC(=O)c1ccc2c(c1)CCC2N(C(=O)Nc1ccc(OC(F)(F)F)cc1)c1ccc(C2CCCCC2)cc1 (stereo not given) | – | 6.72 | 7.17 | – |
| CC(C)(C)[C@H]1CC[C@H](N(C(=O)Nc2ccc(OC(F)(F)F)cc2)C2CCOc3cc(C(=O)Nc4nn[nH]n4)ccc32)CC1 (stereo not given in full) | 6.93 | – | – | – |
